In the assay the test system is OMM1 uveal melanoma cell line. The assay is described as follows: SRB cell viability assay, OMM1. Type of assay: cell-based, Human. The procedure:
TLD1433 is known to generate reactive oxygen species (ROS) with high quantum efficacy in many cancer cell lines. However, there is no report of the in vitro toxicity of this compound in eye melanoma (UM) cell lines. We determined the cell viability of three conjunctival melanoma cell lines (CRMM1, CRMM2 and CM2005.1), and three uveal melanoma cell lines (OMM1, OMM2.5, MEL270) in the presence of TLD1433, both in the dark or under green light irradiation (21 mW/cm^2, 19 J/cm^2, 520 nm, 15 min), and compared this viability to epidermoid carcinoma A431 and cutaneous melanoma A375 cell lines under the same conditions. The protocol used was based on previous work from the Bonnet group, and differed slightly from recommendations from McFarland et al.. […] The effective concentration (EC50) values, i.e., the concentration required to reduce cell viability by 50% compared to untreated wells, were assessed by fitting the dose-response curves with a Hill equation. The phototoxicity index (PI), defined as the ratio of the dark EC50 to the light EC50, was also calculated and represents the amplification of TLD1433 activity with a light trigger. […]
Figure 2 Cell viability after TLD1433 treatment of eight tumour cell lines (CRMM1, CRMM2, CM2005.1, OMM1, OMM2.5, MEL270, A431, A375). […] The absorbance of Sulforhodamine B in solution was measured at 520 nm. […]
At day 0, cells were detached using 1mL of trypsin, resuspended in 4 mL of media and transferred to a 15 mL corning falcon tube. Cells were counted using trypan blue and BioRad® TC20™ automated cell counter (Figure 11). Dilutions of 6000 (CRMM1), 6000 (CRMM2), 8000 (CM2005.1), 6000 (OMM1), 6000 (OMM2.5), 6000 (MEL270) 8000 (A431), and 4000 (A375) cells/well were calculated from each cell suspension at a final volume of 6 mL using the following formula: Vc=(Vt×10C)/Lc where Vt = total volume of solution, C = number of cells per well/per 100 μL and Lc = live cells count (cells/mL). […] Next day, the dye was dissolved using Tri-base (0.25%) and absorbance of SRB at 510 nm was recorded from each well using a Tecan plate reader. […]

Read-outs that look alike come from different tables or passages of the source.

The term EC50 denotes the concentration at which the effect is half-maximal.

Consider `Cc1ccnc(-c2cc(C)ccn2)c1.Cc1ccnc(-c2cc(C)ccn2)c1.[Cl-].[Cl-].[Ru+2].c1csc(-c2ccc(-c3ccc(-c4nc5c6cccnc6c6ncccc6c5[nH]4)s3)s2)c1` [TLD1433], for which the concentration for a half-maximal effect (EC50) runs as follows: (OMM1, dark, 24 h treatment, SRB, read-out: EC50, dark) 1400 nM; (OMM1, green light 520 nm, 15 min, 21 mW/cm^2, 19 J.cm^−2, DLI 24 h, read-out: EC50,light) 14 nM. Moreover, the “PI (photo index)” value (OMM1, ratio of dark and light EC50, 19 J.cm^−2 green light) is reported as 100.

These data come from publication PMC7139549, “TLD1433 Photosensitizer Inhibits Conjunctival Melanoma Cells in Zebrafish Ectopic and Orthotopic Tumour Models” (Cancers, 2020).
